Where two headings read alike, the source gives them in different places.
Assays:
[1] = Serum D-Ribose levels and half life after infusion or oral administration; assay type: in vivo, human
Method: D-Ribose is found at low levels in the diet and normal serum levels are approximately 2 mg/dl. […] When infused for short periods at the concentrations of 60 mg/kg and 100 mg/kg, D-Ribose levels in the serum rose, in each case, to approximately 25 mg/dl. These doses of D-Ribose, for a 60 kilogram man, are 3.6 and 5 grams, respectively. Doses for larger or smaller size humans can be calculated based on their mass, and are typically 1 to 10 grams. […] Intravenous administration of high doses of D-Ribose can elevate the serum levels to as high as 60 mg/dl, while a further increase in dose to 222.2 mg/kg can produce a serum level as high as 86 mg/dl. See, for example, Gross et al., Klinische Wochenschrift (1991) 69:31-36.
Serum D-ribose levels should be maintained long enough to establish an effect that will persist after the serum D-ribose level is back to baseline levels. […] Typically, approximately a third of the cardiac output is used to supply energy to the brain.

[2] = system: two familial males with RLS; assay: Restless Legs Syndrome case study, oral D-ribose at three dosing regimens; assay type: in vivo, human
From the text: We present a report on two familial males with RLS in which the supplementation of D-ribose produced a benefit in lessening the occurrence and severity of their daily symptoms. Both affected male individuals were from a positive family prevalence, three generations carrying the diagnosis of RLS. These males involved the latter two generations, parent and child, respectively. Both men had no underlying medical conditions. Their symptoms of RLS date back for decades and presently have progressed to the moderate to severe discomfort stage, mainly experienced during sedentary periods throughout the day with exacerbation of symptoms during nocturnal sleep. Both individuals were introduced to D-ribose. To evaluate any potential benefits of D-ribose in RLS, each individual orally consumed D-ribose (five grams per dose) daily at different trial dosing regimens. Each trial dosing regimen lasted for three weeks with a two week interval washout between dosing regimens. The initial regimen involved a single dose of oral D-ribose consumed only at breakfast. The second dosing regimen involved consumption of oral D-ribose at breakfast and lunch. In the last dosing regiment, oral D-ribose was taken with all meals, breakfast, lunch and dinner. A diary pertaining to the documentation and severity of RLS symptoms was compiled. The two week washout period between stages was designed to observe any return or worsening of their symptoms. […] Following completion of all dosing regimens of oral D-ribose and with the final wash out period, both males elected to re-start oral dosing of D-ribose at 5 grams/doses three times a day.

[3] = cited from earlier work
[4] = regardless of the measured serum level of D-Ribose; cited from earlier work
[5] = system: two familial males with RLS; settings: oral dosage below eight grams at a time, no more often than every two hours; cited from earlier work
[6] = oral 5 g at breakfast and lunch, three weeks
[7] = oral 5 g at breakfast, lunch and dinner, three weeks
[8] = oral 5 g, single dose at breakfast, three weeks

With `O=C[C@H](O)[C@H](O)[C@H](O)CO` [D-Ribose] the “time for serum D-Ribose levels to drop to near baseline of two mg/dl” value ([1]; at a 15 minute half life) was “within an hour”, the half-life ([1]; human, serum, assumed from the above oral pharmacokinetic information) was 15 min and the “washout complete after ceasing D-ribose supplementation” value ([2]; RLS study) was 48 h. For the same compound, the “leg twitching events and urge to move during the day” value [2, 6] was “reduced for one of the subjects and rarely present in the other”, the nocturnal symptoms [2, 6] was “still experienced the unpleasant sensations during the night” and the diurnal symptoms [2, 7] was “total elimination”. The nocturnal symptoms [2, 7] was “of a much lesser degree and had a later occurrence”, the “general feeling (energy, fatigue)” value [2, 8] was “more energy and less fatigue” and the “symptoms of RLS” value [2, 8] was “without any significant changes”. For the same compound, the adverse reactions ([2]; oral 5 grams/dose three times a day) was “without any adverse reactions”, the “severity and onset of symptoms affecting quality of life” value ([2]; re-started oral 5 grams/dose three times a day) was “substantially improved” and the “time to return of clinical RLS symptoms after cessation of oral D-ribose” value ([2]; washout period) was no more than 48 h. The “normal serum levels of D-Ribose” value ([3]; baseline, from diet) was “approximately 2 mg/dl”, the “D-Ribose level in the serum” value ([3]; infused for short periods at 60 mg/kg) was “approximately 25 mg/dl” and the “D-Ribose level in the serum” value ([3]; infused for short periods at 100 mg/kg) was “approximately 25 mg/dl”. The “half life of D-Ribose in the serum” value ([3]; infusion 60 mg/kg) was 11 min, the “half life of D-Ribose in the serum” value ([3]; infusion 100 mg/kg) was 16 min and the “serum D-Ribose level” value ([3]; intravenous administration of high doses) was no more than 60 mg/dL. The “serum D-Ribose level” value ([3]; intravenous, further increase in dose to 222.2 mg/kg) was no more than 86 mg/dL, the “serum D-Ribose level” value ([3]; oral, four hours of 83.2 mg/kg per hour) was 29.25 mg/dL and the “serum D-Ribose level” value ([3]; oral, four hours of 166.7 mg/kg per hour) was 35 mg/dL. The “decline in serum glucose, ultimate lower level” value [4] was 25% and the side effects [5] was “no side effects”.

Reference: patent US20090286750A1, “USE OF RIBOSE IN LESSENING THE CLINICAL SYMPTOMS OF ABERRANT FIRING OF NEURONS” (priority 2008, published 2009)
